Laboratory results published in patent publication US8173428B2, “LNA oligonucleotides and the treatment of cancer” (Santaris Pharma A/S, priority 2004, dated 2012).
Oligonucleotides are written 5' to 3', each unit as a sugar letter and its base; * is a phosphorothioate linkage, no mark a phosphodiester; rarer units and linkages stand in square brackets, end groups in braces. Plain capitals give the bases only. l = locked nucleic acid (LNA); [5mC] = 5-methylcytosine; d = 2'-deoxy (DNA)

Assays:
15PC3 cells = assay: Cell cycle analysis by propidium iodide staining and FACS; type: cell-based, human; conditions: transfected 15PC3 cells exposed to different concentrations of Taxol
Description: Cell culturing: Human prostate cancer 15PC3 cells (kindly provided by Dr. F Baas, Neurozintuigen Laboratory, AMC, The Netherlands) were seeded to a density of 8×10E5 cells in T75-flasks and grown for two days at 37° C. and 5% CO2 in DMEM supplemented with 10% FBS, Glutamax and Gentamicin. Two days following seeding cells were transfected with 2-10 nM SEQ ID NO. 2 using Lipofectamine at a final conc. of 7.5 μg/ml. Transfections were carried out as described by Dean et al. (1994, JBC 269 p. 16416 16424). In short cells were incubated with Lipofectamine diluted in OptiMEM for 7-10 min followed by the addition of the oligonucleotide to total volume of 8.7 ml per T75 flask. 4 hours following transfection cells were washed in OptiMEM and grown at 37° C. for 12-96 hours in complete growth medium with or without the addition of 2-100 nM Taxol (Sigma Aldrich). Cells were harvested for either mRNA extraction, Caspase 3/7 assay or fixed, stained with PI and analysed by FACS analysis.
Cell culturing and transfections: As in example 13.
Fixation and PI staining: Cells were washed in PBS, harvested and resuspended in 100 μl in ice cold PBS. 900 μl ice cold 70% […] and fixed cells were kept at −20 until use. […]
SEQ ID NO. 2 transfected 15PC3 cells were exposed to different concentrations of Taxol and analysed by Propidium Iodide staining and subsequent FACS analysis (FIG. 7a-c). […]

[1] = tested on: PC-3 human prostate cancer cells; assay: PC3 xenograft tumour growth inhibition in nude mice; type: in vivo, Balb/cA-nu mice; conditions: combined with Taxol, dose schedules A and B, after 27 days, versus single agent treatment or saline
Description: Model: PC-3 human prostate cancer cells (ECACC) are mixed with Matrigel and injected s.c. into both flanks of female Balb/cA-nu mice on Day 0.
Dosing: Saline solution of SEQ ID NO. 2 according to schedule, 2 mg/ml working solution, dosing volume 10 ml/kg; Taxol was used in the clinical formulation. The animals were dosed according to the average group weight on Day 0.
Administration: Oligonucleotides i.p. (see FIG. 8) or intratumoural (see FIG. 9), Taxol i.v., all according to schedule
Observations: Mortality (daily), body weight (twice per week),
Tumour volume: During the experiment, tumour volume is measured twice per week and calculated according to the formula (L×D^2×0.5), where L represents the largest diameter and D the tumour diameter perpendicular to L (mm).
Antitumour activity: Mean tumour weight of treated tumours will be compared with control group.
End of study: The animals will be sacrificed by cervical dislocation. Tumours, livers and spleens will be weighed.

cynomolgus monkeys = assay: i.v. MTD study in cynomolgus monkeys; type: in vivo; conditions: dose escalation up to 160 mg/kg×3 (total 930 mg/kg) or 120 mg/kg×5 over 2 weeks
Description: The animals were treated with either a dose escalating design with a maximum dose of 160 mg/kg×3 (total dose of 930 mg/kg) or a 120 mg/kg×5 over 2 weeks.

5′-^MeCsTs^MeCsAsastscscsastsgsgs^MeCsAsGsc-3′ (l[5mC]*lT*l[5mC]*lA*dA*dT*dC*dC*dA*dT*dG*dG*l[5mC]*lA*lG*dC) [SEQ ID NO. 2]
Cells trapped in the G2 or G4 phase, combination with Taxol (15PC3 cells): increasing amount of cells trapped in the G2 or even G4 phase | Tumour weight [1]: Tumour weight reduction | clinical signs (cynomolgus monkeys): no notable clinical signs | liver and kidney toxicity (cynomolgus monkeys): evidence of liver and kidney toxicity was apparent in all animals
